Measurements published in the supplement of paper PMC10627819.

Columns and labels:
[1] = system: S. aureus Newman; assay: fitness (endpoint OD595 vs no drug) (fraction); higher = more growth
Outline: (§1)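 Each well of a 384-well plate received 30 µl of culture at OD595 0.01, or 55 µl for S. pneumoniae. TSB, LB Lennox or CY served as media at 37 °C. OD595 was taken every 30 min for 14 h and corrected by subtracting the first reading. Fitness is the optical density at stationary-phase entry divided by the robust mean of no-drug controls, capped at 1.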

[2] = system: S. aureus DSM 20231; assay: as above
Outline: as §1

[3] = system: B. subtilis 168; assay: as above
Outline: as §1

[4] = system: S. pneumoniae D39V; assay: as above
Outline: as §1

[5] = system: S. aureus Newman; assay: Bliss interaction score (quartile over a dose matrix) (fitness difference); higher = more antagonism (negative = synergy)
Outline: (§2)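 Growth in each well was taken as OD595 at entry into stationary phase. Dividing by the plate's robust no-drug mean and capping at 1 gave fitness, and single-drug fitness was inferred from the combination data. The Bliss score, observed minus product-expected fitness, is summarised by quartiles over technical, biological and donor/recipient replicates.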

[6] = system: S. aureus DSM 20231; assay: as above
Outline: as §2

[7] = system: B. subtilis 168; assay: as above
Outline: as §2

[8] = system: S. pneumoniae D39V; assay: as above
Outline: as §2
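For Bliss interaction score (quartile over a dose matrix) in this document: first quartile when negative (synergy) and third quartile when positive (antagonism).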

CO/N=C(\C(=O)N[C@@H]1C(=O)N2C(C(=O)O)=C(COC(C)=O)CS[C@H]12)c1csc(N)n1 [Cefotaxime] + CCN(CC)CCOC(=O)c1ccc(N)cc1 [Procaine]
fitness, one replicate
Conditions | partner 85.5 µg/mL | partner 171 µg/mL | partner 342 µg/mL
[1], first compound 0.078 µg/mL | 0.608 | 0.612 | 0.595
[1], first compound 0.156 µg/mL | 0.454 | 0.459 | 0.438
[1], first compound 0.312 µg/mL | 0.276 | 0.255 | 0.264
[2], first compound 0.039 µg/mL | 0.632 | 0.766 | 0.762
[3], first compound 0.00775 µg/mL | 0.834 | 0.848 | 0.811
[3], first compound 0.0155 µg/mL | 0.701 | 0.691 | 0.64
[3], first compound 0.031 µg/mL | 0.583 | 0.572 | 0.561

fitness
Conditions | partner 85.5 µg/mL | partner 171 µg/mL | partner 342 µg/mL
[1], first compound 0.625 µg/mL | 0.169 | 0.111 | 0.139
[1], first compound 1.25 µg/mL | 0.0581 | 0.0383 | 0.0412
[1], first compound 2.5 µg/mL | 0.0238 | 0.0269 | 0.0485
[2], first compound 0.078 µg/mL | 0.721 | 0.786 | 0.77
[2], first compound 0.156 µg/mL | 0.62 | 0.703 | 0.712
[2], first compound 0.312 µg/mL | 0.579 | 0.67 | 0.664
[3], first compound 0.5 µg/mL | 0.243 | 0.225 | 0.259
[3], first compound 1 µg/mL | 0.165 | 0.125 | 0.169
[3], first compound 2 µg/mL | 0.0861 | 0.0682 | 0.118
[4], first compound 0.0018 µg/mL | ≥ 1 | ≥ 1 | ≥ 1
[4], first compound 0.0035 µg/mL | 0.954 | ≥ 1 | 0.945
[4], first compound 0.007 µg/mL | 0.904 | 0.92 | 0.844

Conditions | Bliss interaction score
[5] | -0.0467
[6] | -0.0909
[7] | 0.0852
[8] | -0.0264

CO/N=C(\C(=O)N[C@@H]1C(=O)N2C(C(=O)O)=C(COC(C)=O)CS[C@H]12)c1csc(N)n1 [Cefotaxime] + CN1C2=CC=CC=C2N=C3C1=CC=CC3=O [Pyocyanin]
fitness, one replicate
Conditions | partner 1.25 µg/mL | partner 2.5 µg/mL | partner 5 µg/mL
[1], first compound 0.039 µg/mL | 0.677 | 0.696 | 0.424
[1], first compound 0.625 µg/mL | 0.0517 | 0.0483 | 0.0237
[1], first compound 1.25 µg/mL | 0.0559 | 0.0861 | 0.0706
[1], first compound 2.5 µg/mL | 0.0452 | 0.0518 | 0.0704
[2], first compound 0.039 µg/mL | 0.748 | 0.738 | 0.512
[3], first compound 0.00775 µg/mL | 0.775 | 0.712 | 0.534
[3], first compound 0.0155 µg/mL | 0.665 | 0.543 | 0.407
[3], first compound 0.031 µg/mL | 0.522 | 0.462 | 0.35

fitness
Conditions | partner 0.325 µg/mL | partner 0.65 µg/mL | partner 1.25 µg/mL | partner 1.3 µg/mL | partner 2.5 µg/mL | partner 5 µg/mL
[1], first compound 0.078 µg/mL | – | – | 0.671 | – | 0.654 | 0.399
[1], first compound 0.156 µg/mL | – | – | 0.527 | – | 0.552 | 0.354
[1], first compound 0.312 µg/mL | – | – | 0.311 | – | 0.319 | 0.204
[2], first compound 0.078 µg/mL | – | – | 0.746 | – | 0.766 | 0.55
[2], first compound 0.156 µg/mL | – | – | 0.757 | – | 0.746 | 0.511
[2], first compound 0.312 µg/mL | – | – | 0.676 | – | 0.671 | 0.474
[3], first compound 0.5 µg/mL | – | – | 0.291 | – | 0.264 | 0.229
[3], first compound 1 µg/mL | – | – | 0.144 | – | 0.102 | 0.111
[3], first compound 2 µg/mL | – | – | 0.0757 | – | 0.0908 | 0.0747
[4], first compound 0.0018 µg/mL | 0.992 | ≥ 1 | – | 0.904 | – | –
[4], first compound 0.0035 µg/mL | 0.98 | ≥ 1 | – | 0.871 | – | –
[4], first compound 0.007 µg/mL | 0.934 | 0.947 | – | 0.839 | – | –

Conditions | Bliss interaction score
[5] | 0.0647
[6] | 0.0641
[7] | 0.0372
[8] | 0.0458

Cc1ncc([N+](=O)[O-])n1CCO [Metronidazole] + CN[C@H](CC(C)C)C(=O)N[C@H]1C(=O)N[C@@H](CC(N)=O)C(=O)N[C@H]2C(=O)N[C@H]3C(=O)N[C@H](C(=O)N[C@H](C(=O)O)c4cc(O)cc(O)c4-c4cc3ccc4O)[C@H](O)c3ccc(c(Cl)c3)Oc3cc2cc(c3O[C@@H]2O[C@H](CO)[C@@H](O)[C@H](O)[C@H]2O[C@H]2C[C@](C)(N)[C@H](O)[C@H](C)O2)Oc2ccc(cc2Cl)[C@H]1O [Vancomycin]
Conditions | fitness
[1], first compound 0.625 µg/mL, partner 0.1875 µg/mL | 0.987
[1], first compound 0.625 µg/mL, partner 0.375 µg/mL | ≥ 1
[1], first compound 0.625 µg/mL, partner 0.75 µg/mL | ≥ 1
[1], first compound 1.25 µg/mL, partner 0.1875 µg/mL | 0.968
[1], first compound 1.25 µg/mL, partner 0.375 µg/mL | ≥ 1
[1], first compound 1.25 µg/mL, partner 0.75 µg/mL | 0.953
[1], first compound 2.5 µg/mL, partner 0.1875 µg/mL | ≥ 1
[1], first compound 2.5 µg/mL, partner 0.375 µg/mL | ≥ 1
[1], first compound 2.5 µg/mL, partner 0.75 µg/mL | ≥ 1
[2], first compound 0.625 µg/mL, partner 0.1875 µg/mL | ≥ 1
[2], first compound 0.625 µg/mL, partner 0.375 µg/mL | ≥ 1
[2], first compound 0.625 µg/mL, partner 0.75 µg/mL | ≥ 1
[2], first compound 1.25 µg/mL, partner 0.1875 µg/mL | ≥ 1
[2], first compound 1.25 µg/mL, partner 0.375 µg/mL | ≥ 1
[2], first compound 1.25 µg/mL, partner 0.75 µg/mL | ≥ 1
[2], first compound 2.5 µg/mL, partner 0.1875 µg/mL | ≥ 1
[2], first compound 2.5 µg/mL, partner 0.375 µg/mL | 1
[2], first compound 2.5 µg/mL, partner 0.75 µg/mL | 0.995
[4], first compound 1.073 µg/mL, partner 0.125 µg/mL | ≥ 1
[4], first compound 1.073 µg/mL, partner 0.5 µg/mL | 0.0194
[4], first compound 1.25 µg/mL, partner 0.03125 µg/mL | 0.992
[4], first compound 1.25 µg/mL, partner 0.0625 µg/mL | 0.959
[4], first compound 1.25 µg/mL, partner 0.125 µg/mL | 0.825
[4], first compound 2.145 µg/mL, partner 0.125 µg/mL | 0.895
[4], first compound 2.145 µg/mL, partner 0.5 µg/mL | 0.0439
[4], first compound 2.5 µg/mL, partner 0.03125 µg/mL | ≥ 1
[4], first compound 2.5 µg/mL, partner 0.0625 µg/mL | 0.966
[4], first compound 2.5 µg/mL, partner 0.125 µg/mL | 0.807
[4], first compound 4.29 µg/mL, partner 0.125 µg/mL | ≥ 1
[4], first compound 4.29 µg/mL, partner 0.5 µg/mL | 0.108
[4], first compound 5 µg/mL, partner 0.03125 µg/mL | 0.986
[4], first compound 5 µg/mL, partner 0.0625 µg/mL | 0.938
[4], first compound 5 µg/mL, partner 0.125 µg/mL | 0.792

fitness, [1], one replicate
Conditions | first compound 0.781 µg/mL | first compound 1.562 µg/mL | first compound 3.124 µg/mL
partner 0.1875 µg/mL | ≥ 1 | ≥ 1 | 0.995
partner 0.375 µg/mL | ≥ 1 | 0.995 | 0.99
partner 0.75 µg/mL | ≥ 1 | 0.99 | ≥ 1

Conditions | Bliss interaction score
[5] | 0.0696
[6] | 0.033
[7] | 0.0651
[8] | 0.123
